This passage reports MIC results from patent publication US20130165368A1, “ANTIMICROBIAL COMPOUNDS” (priority 2010, published 2013).

The structures appear in SMILES notation. Converted amounts (≈) assume the structure as drawn. Like-named read-outs stand apart in the source and are kept apart here.

Common to all, as to assay type: cell-based
Assay [1] relates to Staphylococcus epidermidis. As to the kind of experiment: MIC agar dilution, micro-organism 14 (11047). The conditions noted are these: Staphylococcus epidermidis 11047. In outline:
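Agar dilution in Isosensitest/CCEY agar with egg yolk and lysed horse blood; compounds as aqueous emulsions (myristyl and lauryl alcohol with 1-methyl-2-pyrrolidone and Tween 20). 1 µL spots of 1/15-diluted 0.5 McFarland suspensions, 37 °C aerobic, read at 22 and 48 h; MIC (mmol/L) is lowest concentration giving <10 colonies.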

Assay [2] concerns Enterococcus faecalis (VRE) MB 1969. As to the kind of experiment: MIC agar dilution, VRE strain 27. As for the experimental part:
(§1) Molar equivalent concentrations were used to allow comparison between compounds of differing molecular mass. Due to weighing difficulties, any compound in solid form was melted in a water bath prior to dilution. To make ten-times strength concentrations, which takes into account agar dilution, 0.0352 mmol of each compound was weighed into plastic universal bottles and 4 mL of sterile distilled water (SDW) was added. To produce a homogenous emulsion the universals were vortexed; once achieved the emulsions were serial diluted by adding 2 mL to 2 mL of SDW.
(§2) For every 100 mL of Isosensitest agar (IST) (CM0471; Oxoid, Basingstoke, England), 3.1 g of the IST powder was added to 100 mL SDW (as per manufacturer's instructions) and sterilised for 15 minutes at 121° C. Once sterilised, the molten agar was cooled to 50° C. in a water-bath. Subsequently 4.8 g of CCEY powder (BC2160; Bioconnections, Wetherby, England), also known as Brazier's medium, was added to 100 mL SDW for every 100 mL of agar needed. This was then sterilised for 15 minutes at 121° C. Once sterilised the molten agar was cooled to 50° C. in a water-bath and 4 mL of egg-yolk emulsion (S2073; TCS Biosciences Ltd, Buckingham, United Kingdom) and 1 mL of lysed defibrinated horse blood (HB035; TCS Biosciences Ltd, Buckingham, United Kingdom) were also added for every 100 mL needed. Horse blood lysis is achieved by dilution to half concentration with SDW; when fully lysed the mixture will turn dark red in colour.
(§3) 18 mL agar was added to each universal and then poured into sterile Petri dishes. This step creates a 1/10 dilution resulting in agar plates of the required strength. Control plates for each set of strains were created by adding 18 mL of agar to 2 mL of SDW.
(§4) Suspensions of each bacterial species were prepared with a density equal to that of a 0.5 McFarland standard using a densitometer. All suspensions were made using sterile distilled water and fresh 18-20 hour cultures. As a 0.5 McFarland standard contains 1.5×10^8 CFU/mL and the multipoint inoculators applies 1 μL spots of liquid, each bacterial suspension was diluted 1/15 (20 μL suspension to 280 μL sterile distilled water).
(§5) Bacterial suspensions were prepared from fresh 18-24 hour cultures as previously described. 1 μL of each strain was inoculated onto all 100 agar plates containing a different chemical concentration and the 2 control plates. This was done using a multipoint inoculator which inoculates 20 strains per plate. All plates were incubated for 22 hours at 37° C. in aerobic conditions.
(§6) Each plate was examined for bacterial growth after 22 and 48 hours, with each being incubated in between examinations. A positive result was recorded as growth of ≧10 colonies. A negative result was recorded as growth of <10 colonies as this is equivalent to 99.9% inhibition. The lowest concentration of chemical that inhibited growth was recorded as the MIC. The results are recorded in Table IV below, where the numbers are quoted in mmol/L.
(§7) Given the positive performance of the ethoxylates of lauryl alcohol in reducing the MIC for a number of the micro-organisms tested, further MIC testing of Laureth-1 [C12E1] through to Laureth-8 [C12E8] was conducted on each of the following: • 10 strains of vancomycin-resistant enterococci (VRE)—listed in Table V below; and • 20 strains of methicillin-resistant Staphylococcus aureus (MRSA)—listed in Table VI.
(§8) The alkanol, alkanol derivatives, agar plates, and inocula were all prepared in the same way as described above.
(§9) The plates were examined in the same manner as described above and the results are recorded in Table VII below, where the numbers are quoted in mmol/L.
In general terms: Agar dilution tests growth on a series of plates holding different concentrations.

In assay [3] the test system is Enterococcus faecalis (VRE) MB 726. As to the kind of experiment: MIC agar dilution, VRE strain 28. As for the experimental part:
as §1, §2, §3, §4, §5, §6, §7, §8, §9

The next assay concerns MRSA BEL 97597. As to the kind of experiment: MIC agar dilution, MRSA strain 33. The conditions noted are these: Staphylococcus aureus. As for the experimental part:
as §1, §2, §3, §4, §5, §6, §7, §8, §9

A further assay concerns MRSA BEL 97598. As to the kind of experiment: MIC agar dilution, MRSA strain 34. Conditions: Staphylococcus aureus. How it is done: as §1, §2, §3, §4, §5, §6, §7, §8, §9
Assay [4] relates to MRSA GER 1966/97 (Hanover IIIc). As to the kind of experiment: MIC agar dilution, MRSA strain 36. Conditions: Staphylococcus aureus. How it is done:
as §1, §2, §3, §4, §5, §6, §7, §8, §9

The subject of another assay is MRSA FRA 95035. As to the kind of experiment: MIC agar dilution, MRSA strain 37. Conditions: Staphylococcus aureus. As for the experimental part: as §1, §2, §3, §4, §5, §6, §7, §8, §9
Another assay has as its system MRSA EMRSA 15 19972/98. As to the kind of experiment: MIC agar dilution, MRSA strain 39. Conditions: Staphylococcus aureus. How it is done:
as §1, §2, §3, §4, §5, §6, §7, §8, §9

Another assay deals with MRSA EMRSA 15 21698/98. As to the kind of experiment: MIC agar dilution, MRSA strain 41. Conditions: Staphylococcus aureus. As for the experimental part:
as §1, §2, §3, §4, §5, §6, §7, §8, §9

The test system of the next assay is MRSA EMRSA 15 1758/98. As to the kind of experiment: MIC agar dilution, MRSA strain 43. Conditions: Staphylococcus aureus. How it is done: as §1, §2, §3, §4, §5, §6, §7, §8, §9
The next assay has as its system MRSA EMRSA 16 21354/95. As to the kind of experiment: MIC agar dilution, MRSA strain 44. The conditions noted are these: Staphylococcus aureus. How it is done: as §1, §2, §3, §4, §5, §6, §7, §8, §9
The test system of the next assay is MRSA EMRSA 16 00036/95. As to the kind of experiment: MIC agar dilution, MRSA strain 46. Conditions: Staphylococcus aureus. How it is done: as §1, §2, §3, §4, §5, §6, §7, §8, §9
The next assay concerns MRSA EMRSA 16 18200/95. As to the kind of experiment: MIC agar dilution, MRSA strain 48. The conditions noted are these: Staphylococcus aureus. How it is done: as §1, §2, §3, §4, §5, §6, §7, §8, §9

`CCCCCCCCCCCCCOCCOCCOCCOCCOCCOCCO` [C13E6, polyoxyethylene (6) tridecyl alcohol]: the MIC in assay [1] (22 hrs) and in assay [1] (48 hrs) was 110 µM (≈ 51.1 µg/mL) throughout.
On to `CCCCCCCCCCCCCCCCO` [C0, 1-Hexadecanol, reference compound], for which the MIC is greater than 880 µM in assay [1] (22 hrs, read-out: MIC) and greater than 880 µM in assay [1] (48 hrs, read-out: MIC).
In the case of `CCCCCCCCCCCCOCCOCCOCCO` [L3, Triethylene Glycol Monododecyl Ether], the MIC is no more than 50 µM in [1] (22 hrs, read-out: MIC); no more than 50 µM in assay [1] (48 hrs, read-out: MIC); 440 µM (≈ 140 µg/mL) in assay [2] (22 hrs); 440 µM (≈ 140 µg/mL) in assay [2] (48 hrs); 220 µM (≈ 70.1 µg/mL) in assay [3] (22 hrs); 220 µM (≈ 70.1 µg/mL) in [3] (48 hrs). For the same molecule, the MIC is 55 µM (≈ 17.5 µg/mL) in the assay with MRSA BEL 97597 (22 hrs); 55 µM (≈ 17.5 µg/mL) in the assay with MRSA BEL 97597 (48 hrs); 110 µM (≈ 35 µg/mL) in the assay on MRSA BEL 97598 (22 hrs); 110 µM (≈ 35 µg/mL) in the assay with MRSA BEL 97598 (48 hrs); 55 µM (≈ 17.5 µg/mL) in [4] (22 hrs); 55 µM (≈ 17.5 µg/mL) in assay [4] (48 hrs). The MIC in the assay on MRSA FRA 95035 (22 hrs) is 55 µM (≈ 17.5 µg/mL); against MRSA FRA 95035 (48 hrs), 55 µM (≈ 17.5 µg/mL); in the assay with MRSA EMRSA 15 19972/98 (22 hrs) it was 110 µM (≈ 35 µg/mL); in the assay with MRSA EMRSA 15 19972/98 (48 hrs) it was 110 µM (≈ 35 µg/mL); in the assay with MRSA EMRSA 15 21698/98 (22 hrs), 110 µM (≈ 35 µg/mL); in the assay with MRSA EMRSA 15 21698/98 (48 hrs), 110 µM (≈ 35 µg/mL). For the same molecule, the MIC in the assay with MRSA EMRSA 15 1758/98 (22 hrs) is 55 µM (≈ 17.5 µg/mL); with MRSA EMRSA 15 1758/98 (48 hrs), 110 µM (≈ 35 µg/mL); against MRSA EMRSA 16 21354/95 (22 hrs) it was 110 µM (≈ 35 µg/mL); with MRSA EMRSA 16 21354/95 (48 hrs) it was 110 µM (≈ 35 µg/mL); in the assay with MRSA EMRSA 16 00036/95 (22 hrs), 55 µM (≈ 17.5 µg/mL); against MRSA EMRSA 16 00036/95 (48 hrs), 55 µM (≈ 17.5 µg/mL). In addition, the MIC with MRSA EMRSA 16 18200/95 (22 hrs) and against MRSA EMRSA 16 18200/95 (48 hrs) was 110 µM (≈ 35 µg/mL) in each case.

One may read the MIC as the least concentration at which growth counts as inhibited.
